Assay results: patent publication US4622422A, “Cyclohexanealkanoic acids” (Merrell Dow Pharmaceuticals Inc., priority 1985, dated 1986)

Assays:
leukotriene D4 = assay: In vivo leukotriene D4 antagonist activity in anesthetized guinea pigs (modified Konzett-Rossler preparation); set-up: species or system guinea pig; details: 10-20 min before 1 μg/ml LTD4 aerosol (1 min), inflation pressure response
Experimental: Compounds of the present invention were also tested for in vivo leukotriene D4 antagonist activity in anesthetized guinea pigs using a modified Konzett-Rossler preparation. Specifically, the guinea pigs were anesthetized with sodium pentobarbital and surgically prepared for artificial ventilation by a constant volume respirator. The inflation pressure produced by the respirator was measured for each inflation of the guinea pigs' lungs. Increases in inflation pressure above baseline are indicative of bronchoconstriction. After establishing a baseline inflation pressure, the guinea pig was exposed for 1 minute to an aerosol generated ultrasonically from a 1 μg/ml solution of leukotriene D4. After the inflation pressure returned to baseline, the guinea pig was exposed to an aerosol generated from a solution of a test compound. Ten to twenty minutes later, the guinea pig was re-exposed to a 1 minute aerosol generated from 1 μg/ml leukotriene D4. This response was then compared to the initial response and the % inhibition of the response was determined.

[1] = biological target: T1, 3H-LTD4 specific receptor (guinea pig lung membranes) (Cavia porcellus, UniProt Q2NNR5); assay: 3H-LTD4 - Specific Receptor Binding in Guinea Pig Lung Membranes; details: inhibition of 3H-LTD4 specific binding; pH 7.6, 37° C., 20-40 min; read-out: G.P. LUNG SPECIFIC BINDING IC50
T1 construct: from tissue; host or cells: guinea pig lung membranes (30,000 g pellet)
T1 sequence (Q2NNR5 1-340): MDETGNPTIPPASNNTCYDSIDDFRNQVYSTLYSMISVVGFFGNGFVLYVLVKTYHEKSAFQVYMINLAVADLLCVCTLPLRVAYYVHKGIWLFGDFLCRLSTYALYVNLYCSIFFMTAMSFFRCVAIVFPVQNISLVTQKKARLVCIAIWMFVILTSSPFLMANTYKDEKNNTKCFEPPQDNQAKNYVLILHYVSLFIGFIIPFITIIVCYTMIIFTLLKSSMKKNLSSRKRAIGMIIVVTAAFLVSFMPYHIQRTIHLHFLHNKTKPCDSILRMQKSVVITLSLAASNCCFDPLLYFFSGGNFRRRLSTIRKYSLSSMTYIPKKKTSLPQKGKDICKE
Experimental: Male guinea pigs were sacrificed and the lungs were removed and placed in ice cold 50 mM Tris-HCl buffer, pH 7.4. The lungs were then homogenized with a Polytron homogenizer and the homogenate was centrifuged at 1000 g for 10 minutes at 4° C. The supernatant was then centrifuged at 30,000 g for 15 minutes at 4° C. to obtain the membrane pellet. This pellet was resuspended in 50 mM Tris-HCl to provide the working suspension of lung membranes. Binding assays were then carried out in 50 mM Tris-HCl at pH 7.6 and 37° C. using incubation periods of 20-40 min. Separation of bound ^3 H-LTD4 from free ^3 H-LTD4 were performed by rapid vacuum filtration through Whatman GF/B glass fiber filters using ice cold Tris-HCl buffer and three 4 ml washes. Filtration and washing were completed in less than 8 seconds. The radioactivity on the filters was then measured. Specific binding of ^3 H-LTD4 was defined as the binding of ^3 H-LTD4 in the absence of unlabelled LTD4 minus the binding of ^3 H-LTD4 in the presence of 2×10^-7 M unlabelled LTD4. Specific binding of ^3 H-LTD4 was 60-80% of total binding. […] In these tests increasing concentrations of the agent are used to block the ^3 H-LTD4 specific binding. The concentration that reduces the specific binding of ^3 H-LTD4 by 50% is termed the IC50.

[2] = biological target: T2, leukotriene D4 (longitudinal muscle of guinea pig ileum) (Cavia porcellus, UniProt Q2NNR5); assay: Longitudinal Muscle of Guinea Pig Ileum; antagonism of LTD4-induced contraction; type: cell-based; details: 1 μM Indomethacin, 15 min with test agent, then cumulative LTD4, Arunlakshana and Schild, read-out: G.P. ILEUM pA2 (LTD4) (converted)
T2 construct: The longitudinal muscle was then carefully dissected from the circular muscle of the ileum; from tissue; host or cells: guinea pig ileum, longitudinal muscle segments
T2 sequence (Q2NNR5 1-340): T1 sequence (Q2NNR5 1-340)
Experimental: Male, Hartley-Duncan, guinea pigs were sacrificed by cervical dislocation. The terminal portion of the ileum was removed, rinsed, and placed in Burn's modified Tyrode's solution. The longitudinal muscle was then carefully dissected from the circular muscle of the ileum. The longitudinal muscle was cut into 1-2 cm. segments which were placed in a tissue bath containing oxygenated Burn's modified Tyrode's solution warmed to 37° C. A tension of 1.0 gram was then placed on each segment of muscle. After equilibration for 1 hour, 1 μM Indomethacin was added to each bath. After 5 minutes, each tissue segment was then exposed to a concentration of 60 nM leukotriene D4. This response was then considered to be the initial maximal contraction that each segment will produce. After washing the tissue several times, over a 1 hour period, 1 μM Indomethacin was again added to each bath. After a 5 minute period the test agent or vehicle was added to the bath. After 15 minutes, a concentration-response curve was generated using cumulatively increasing concentrations of leukotriene D4. The concentration-response was then compared to the initial maximum contraction. A test compound was considered active, if at concentrations up to 100 μM, it produces a significant shift to the right of the concentration-response relationship to leukotriene D4. The antagonist activity was quantitated in terms of a pA2 value calculated according to the method described by Arunlakshana and Schild, (Brit. J. Pharmac. Chemotherap. 14; 48, 1959).

IC50 [1]	Kb [2]	SMILES	PERCENT INHIBITION (leukotriene D4; 5 mg/ml solution aerosolized)	PERCENT INHIBITION (leukotriene D4; 10 mg/ml solution aerosolized)
3 µM	3.39 µM	CCCCCCCCCCCCC/C=C1\CC[C@@H](CC(=O)O)[C@H](O)[C@H]1SCC(=O)O (relative stereo) [Example 15A, (1α,2β,3α,4E)-3-[(carboxymethyl)thio]-2-hydroxy-4-tetradecylidenecyclohexaneacetic acid]	25.3%	64.2%
0.4 µM	3.09 µM	CCCCCCCCCCCCC/C=C1\CC[C@@H](CC(=O)O)[C@H](O)[C@H]1SCCC(=O)O (relative stereo) [Example 15B, (1α,2β,3α,4E)-3-[(2-Carboxyethyl)thio]-2-hydroxy-4-tetradecylidenecyclohexaneacetic acid]	44.3%	
	1.62 µM	CCCCCCCCCCCCC/C=C1\CC[C@@H](CCC(=O)O)[C@@H](O)[C@@H]1SCC(=O)O (relative stereo) [Example 15C, (1α,2α,3β,4E)-3-[(Carboxymethyl)thio]-2-hydroxy-4-tetradecylidenecyclohexanepropionic acid]		
	2 µM	CCCCCCCCCCCCC/C=C1\CC[C@@H](CCC(=O)O)[C@@H](O)[C@@H]1SCCC(=O)O (relative stereo) [Example 15D, (1α,2α,3β,4E)-3-[(2-Carboxyethyl)thio]-2-hydroxy-4-tetradecylidenecyclohexanepropionic acid]		
	2.24 µM	CCCCCCCCCCCCC/C=C1\CC[C@@H](CCC(=O)O)[C@H](O)[C@H]1SCC(=O)O (relative stereo) [Example 15E, (1α,2β,3α,4E)-3-[(Carboxymethyl)thio]-2-hydroxy-4-tetradecylidenecyclohexanepropionic acid]		
	30.9 µM	CCCCCCCCCCCCC/C=C1\CC[C@@H](CC(=O)O)[C@@H](O)[C@H]1SCC(=O)O (relative stereo) [Example 18, (1α,2α,3α,4E)-3-[(carboxymethyl)thio]-2-hydroxy-4-tetradecylidenecyclohexaneacetic acid]		
